The record followed here is patent US20140228349A1, “5,7-SUBSTITUTED-IMIDAZO[1,2-C]PYRIMIDINES” (Array BioPharma Inc., priority 2011, published 2014).

Common to all, as to format: biochemical
The target in one assay is T1, Human Tyk2 kinase domain (Homo sapiens, UniProt P29597).
T1 construct: comprising amino acids 886 to 1187; His10 (10 histidine residues) (C, cleaved yes); made in house
T1 sequence (P29597 886-1187): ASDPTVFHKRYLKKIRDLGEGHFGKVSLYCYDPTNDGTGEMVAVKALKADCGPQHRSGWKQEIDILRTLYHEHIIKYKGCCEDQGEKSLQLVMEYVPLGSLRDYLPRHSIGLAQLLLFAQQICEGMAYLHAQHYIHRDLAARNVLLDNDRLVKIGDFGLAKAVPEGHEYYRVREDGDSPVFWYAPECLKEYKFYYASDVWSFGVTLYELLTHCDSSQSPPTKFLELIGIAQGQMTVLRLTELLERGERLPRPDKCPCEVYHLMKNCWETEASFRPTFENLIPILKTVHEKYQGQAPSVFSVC
Nature of the assay: Tyk2 Inhibition Assay (Omnia kinase fluorescence peptide substrate). The following applies: averaged IC50 ranges; 10 μM (Km app) or 1 mM ATP, 2 nM Tyk2. An outline of the steps:
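Phosphorylation of 8 μM Omnia Y12 peptide followed kinetically by Sox fluorescence, ex 360/em 485 nm, every 50 s for 45 min. Enzyme: 2 nM Tyk2 kinase domain (aa 886–1187, His tag removed); ATP at 10 μM (Km app) or 1 mM; buffer HEPES pH 7.4 with MgCl2, Triton X-100, DTT. 10-point curves up to 10 μM, IC50 from 4-parameter logistic fit.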

The target in a further assay is T2, JAK1 (Homo sapiens, UniProt P23458).
T2 construct: purchased Invitrogen Corporation, Carlsbad, Calif; IVGN PV4775
T2 sequence (P23458 whole entry): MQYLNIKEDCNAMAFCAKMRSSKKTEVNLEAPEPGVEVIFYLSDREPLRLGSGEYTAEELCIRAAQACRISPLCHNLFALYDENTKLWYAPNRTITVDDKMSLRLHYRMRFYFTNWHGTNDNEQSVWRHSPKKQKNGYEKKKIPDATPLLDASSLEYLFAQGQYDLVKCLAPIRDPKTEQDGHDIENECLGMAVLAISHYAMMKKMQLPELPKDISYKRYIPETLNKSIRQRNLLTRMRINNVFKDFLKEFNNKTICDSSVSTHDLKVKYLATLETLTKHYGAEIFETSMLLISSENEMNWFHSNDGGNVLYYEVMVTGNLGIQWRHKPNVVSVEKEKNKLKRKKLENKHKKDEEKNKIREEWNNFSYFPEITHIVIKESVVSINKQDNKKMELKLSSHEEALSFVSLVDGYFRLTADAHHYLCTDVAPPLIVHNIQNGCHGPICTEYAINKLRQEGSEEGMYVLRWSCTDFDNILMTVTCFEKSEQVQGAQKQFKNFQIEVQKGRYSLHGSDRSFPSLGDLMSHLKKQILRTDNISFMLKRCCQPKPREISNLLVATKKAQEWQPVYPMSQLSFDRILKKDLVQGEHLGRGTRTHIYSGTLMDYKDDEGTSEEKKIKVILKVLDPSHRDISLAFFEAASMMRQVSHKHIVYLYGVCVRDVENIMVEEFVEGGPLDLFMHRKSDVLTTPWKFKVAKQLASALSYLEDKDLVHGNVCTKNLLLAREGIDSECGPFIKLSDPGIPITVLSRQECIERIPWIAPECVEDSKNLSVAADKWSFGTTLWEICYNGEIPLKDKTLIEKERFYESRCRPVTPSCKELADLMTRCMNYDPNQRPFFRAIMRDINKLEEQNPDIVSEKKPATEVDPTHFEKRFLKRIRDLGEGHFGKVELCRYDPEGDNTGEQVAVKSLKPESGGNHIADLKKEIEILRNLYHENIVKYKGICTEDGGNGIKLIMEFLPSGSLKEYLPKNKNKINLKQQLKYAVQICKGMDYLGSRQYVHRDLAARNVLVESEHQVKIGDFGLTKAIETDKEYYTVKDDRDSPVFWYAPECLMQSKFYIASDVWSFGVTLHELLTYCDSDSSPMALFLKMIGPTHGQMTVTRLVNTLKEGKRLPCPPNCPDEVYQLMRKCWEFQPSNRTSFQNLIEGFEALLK
The assay can be described thus: JAK1 Inhibition Assay (Omnia kinase fluorescence peptide substrate). The following applies: averaged IC50 ranges; 40 μM (Km app) or 1 mM ATP, 15 nM JAK1. The method, boiled down:
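15 nM JAK1, 8 μM Omnia Y12 peptide, 40 μM (Km app) or 1 mM ATP; 25 mM HEPES pH 7.4, 10 mM MgCl2, 2% DMSO. Fluorescence (ex 360/em 485 nm) read every 50 s over 45 min. IC50 by 4-parameter fit of percent of control, top dose 10 μM.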

Another assay concerns the target T3, JAK2 (Homo sapiens, UniProt O60674).
T3 construct: purchased Invitrogen Corporation, Carlsbad, Calif; IVGN PV4288
Nature of the assay: JAK2 Inhibition Assay (Omnia kinase fluorescence peptide substrate). The following applies: averaged IC50 ranges; 25 μM (Km app) or 1 mM ATP, 5 nM JAK2.

For the next assay, the target named is T4, JAK3 (Homo sapiens, UniProt P52333).
T4 construct: purchased Invitrogen Corporation, Carlsbad, Calif; IVGN PV4080
T4 sequence (P52333 1-1124): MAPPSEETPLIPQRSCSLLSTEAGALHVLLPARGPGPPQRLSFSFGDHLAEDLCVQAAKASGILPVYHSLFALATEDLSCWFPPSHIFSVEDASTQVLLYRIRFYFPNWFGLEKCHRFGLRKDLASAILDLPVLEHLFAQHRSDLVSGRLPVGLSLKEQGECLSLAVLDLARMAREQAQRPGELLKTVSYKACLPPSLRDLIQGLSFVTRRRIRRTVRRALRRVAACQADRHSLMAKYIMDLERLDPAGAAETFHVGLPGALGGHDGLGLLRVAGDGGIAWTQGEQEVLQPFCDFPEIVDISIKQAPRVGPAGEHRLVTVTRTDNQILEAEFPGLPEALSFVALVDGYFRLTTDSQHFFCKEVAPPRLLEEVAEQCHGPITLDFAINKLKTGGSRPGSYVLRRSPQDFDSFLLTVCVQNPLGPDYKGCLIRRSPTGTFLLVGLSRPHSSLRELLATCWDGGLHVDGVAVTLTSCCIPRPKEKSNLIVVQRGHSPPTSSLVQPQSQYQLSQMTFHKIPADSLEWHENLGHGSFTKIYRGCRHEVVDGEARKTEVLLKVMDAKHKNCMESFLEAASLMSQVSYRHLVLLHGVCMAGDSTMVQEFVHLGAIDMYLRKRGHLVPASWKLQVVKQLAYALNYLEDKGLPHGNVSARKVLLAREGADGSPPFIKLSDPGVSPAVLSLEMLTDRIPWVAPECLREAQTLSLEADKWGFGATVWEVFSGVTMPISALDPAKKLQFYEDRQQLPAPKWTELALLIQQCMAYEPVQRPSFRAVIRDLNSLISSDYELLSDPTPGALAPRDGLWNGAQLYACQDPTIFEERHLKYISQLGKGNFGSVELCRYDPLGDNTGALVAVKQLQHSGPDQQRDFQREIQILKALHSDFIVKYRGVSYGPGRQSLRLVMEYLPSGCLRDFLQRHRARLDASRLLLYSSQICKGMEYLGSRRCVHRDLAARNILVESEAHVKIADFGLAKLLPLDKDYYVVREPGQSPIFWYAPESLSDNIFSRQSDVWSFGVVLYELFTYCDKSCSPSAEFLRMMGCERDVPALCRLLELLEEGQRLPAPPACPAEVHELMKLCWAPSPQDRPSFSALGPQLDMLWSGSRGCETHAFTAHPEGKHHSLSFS
Nature of the assay: JAK3 Inhibition Assay (Omnia kinase fluorescence peptide substrate). The note with it: averaged IC50 ranges; 10 μM (Km app) or 1 mM ATP, 2.5 nM JAK3. The method, boiled down:
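IC50 is the concentration giving 50 percent of control on a 4-parameter logistic fit of 10-point, 3-fold dilutions from a 10 μM top dose, at 2% final DMSO. Kinetic Sox fluorescence (360/485 nm) was monitored every 50 s for 45 min. Mix: JAK3 2.5 nM, Omnia Y7 peptide 10 μM, ATP 10 μM (Km app) or 1 mM, in HEPES pH 7.4 buffer with MgCl2, Triton X-100 and DTT.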

As usually defined, the IC50 is the concentration needed to halve the response being measured.

T3 sequence (O60674 whole entry): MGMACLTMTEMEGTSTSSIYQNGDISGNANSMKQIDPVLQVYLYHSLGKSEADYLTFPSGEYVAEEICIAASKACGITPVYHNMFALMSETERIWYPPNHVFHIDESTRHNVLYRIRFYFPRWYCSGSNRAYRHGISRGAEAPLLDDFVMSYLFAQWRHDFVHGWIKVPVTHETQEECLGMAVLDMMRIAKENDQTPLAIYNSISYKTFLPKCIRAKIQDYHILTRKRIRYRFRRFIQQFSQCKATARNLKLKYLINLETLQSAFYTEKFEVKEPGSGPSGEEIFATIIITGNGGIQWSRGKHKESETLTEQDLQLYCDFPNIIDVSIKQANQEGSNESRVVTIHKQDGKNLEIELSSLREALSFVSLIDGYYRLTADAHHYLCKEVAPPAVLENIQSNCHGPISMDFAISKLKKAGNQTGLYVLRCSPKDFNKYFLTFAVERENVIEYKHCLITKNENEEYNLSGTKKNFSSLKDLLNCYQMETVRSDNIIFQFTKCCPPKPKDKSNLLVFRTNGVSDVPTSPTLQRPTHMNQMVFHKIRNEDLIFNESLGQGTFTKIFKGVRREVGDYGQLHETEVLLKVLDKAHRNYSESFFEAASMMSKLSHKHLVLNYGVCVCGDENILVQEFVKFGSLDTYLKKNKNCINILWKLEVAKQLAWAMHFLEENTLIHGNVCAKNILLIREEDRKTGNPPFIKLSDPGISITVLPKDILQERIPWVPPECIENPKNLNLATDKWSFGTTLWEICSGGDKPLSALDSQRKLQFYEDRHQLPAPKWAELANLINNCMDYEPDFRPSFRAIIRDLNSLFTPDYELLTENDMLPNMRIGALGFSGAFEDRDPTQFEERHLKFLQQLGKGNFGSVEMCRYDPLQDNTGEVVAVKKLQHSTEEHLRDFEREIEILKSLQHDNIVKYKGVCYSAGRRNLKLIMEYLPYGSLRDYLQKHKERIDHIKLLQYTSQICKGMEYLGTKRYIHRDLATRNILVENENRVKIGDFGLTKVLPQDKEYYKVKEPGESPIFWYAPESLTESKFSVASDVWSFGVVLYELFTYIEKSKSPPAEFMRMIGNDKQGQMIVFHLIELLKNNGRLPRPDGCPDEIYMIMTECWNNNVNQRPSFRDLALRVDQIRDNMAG

As for `Cn1cc(-c2cc3nccn3c(-c3cnn(C(CCO)c4ccc(F)cc4)c3)n2)cn1` (stereo not shown) [Example 81, 3-(4-fluorophenyl)-3-(4-(7-(1-methyl-1H-pyrazol-4-yl)imidazo[1,2-c]pyrimidin-5-yl)-1H-pyrazol-1-yl)propan-1-ol], the IC50 at Human Tyk2 kinase domain, at JAK1, against JAK2 and on JAK3 was 100 to 1000 nM each time.

For the compound `COCCC(c1ccc(F)cc1)n1cc(-c2nc(-c3cnn(C)c3)cc3nccn23)cn1` (stereo not shown) [Example 82, 5-(1-(1-(4-fluorophenyl)-3-methoxypropyl)-1H-pyrazol-4-yl)-7-(1-methyl-1H-pyrazol-4-yl)imidazo[1,2-c]pyrimidine], the half-maximal inhibitory concentration (IC50) on Human Tyk2 kinase domain, at JAK1, at JAK2 and against JAK3 was 100 to 1000 nM in each case.

With `CCCCC1(n2cc(-c3nc(-c4cnn(C)c4)cc4nccn34)cn2)CN(S(=O)(=O)C(F)(F)F)C1` [Example 83, 5-(1-(3-butyl-1-((trifluoromethyl)sulfonyl)azetidin-3-yl)-1H-pyrazol-4-yl)-7-(1-methyl-1H-pyrazol-4-yl)imidazo[1,2-c]pyrimidine], the IC50 lay in the range of 10 to 100 nM against Human Tyk2 kinase domain, 100 to 1000 nM at JAK1, 100 to 1000 nM against JAK2 and 100 to 1000 nM at JAK3.

For the compound `Cc1nn(C)cc1S(=O)(=O)N1CC(CCF)(n2cc(-c3nc(-c4cnn(C)c4)cc4nccn34)cn2)C1` [Example 85, 5-(1-(1-((1,3-dimethyl-1H-pyrazol-4-yl)sulfonyl)-3-(2-fluoroethyl)azetidin-3-yl)-1H-pyrazol-4-yl)-7-(1-methyl-1H-pyrazol-4-yl)imidazo[1,2-c]pyrimidine], the IC50 against Human Tyk2 kinase domain is 100 to 1000 nM; on JAK1, 100 to 1000 nM; on JAK2 it was 100 to 1000 nM; at JAK3 it was more than 1000 nM.

Take `Cn1cc(-c2cc3nccn3c(-c3cnn(C4(CCF)CN(S(=O)(=O)CC(F)(F)F)C4)c3)n2)cn1` [Example 86, 5-(1-(3-(2-fluoroethyl)-1-((2,2,2-trifluoroethyl)sulfonyl)azetidin-3-yl)-1H-pyrazol-4-yl)-7-(1-methyl-1H-pyrazol-4-yl)imidazo[1,2-c]pyrimidine]: the IC50 against Human Tyk2 kinase domain is 100 to 1000 nM; on JAK1, more than 1000 nM; at JAK2 it was 100 to 1000 nM; against JAK3 it was more than 1000 nM.

As for `Cn1cc(-c2cc3nccn3c(-c3cnn(C4(CCF)CN(S(=O)(=O)CC5CC5)C4)c3)n2)cn1` [Example 87, 5-(1-(1-((cyclopropylmethyl)sulfonyl)-3-(2-fluoroethyl)azetidin-3-yl)-1H-pyrazol-4-yl)-7-(1-methyl-1H-pyrazol-4-yl)imidazo[1,2-c]pyrimidine], the IC50 against Human Tyk2 kinase domain, against JAK1, on JAK2 and against JAK3 was 100 to 1000 nM each time.

With `CCCC1(n2cc(-c3nc(-c4cnn(C)c4)cc4nccn34)cn2)CN(S(=O)(=O)C(F)(F)F)C1` [Example 88, 7-(1-methyl-1H-pyrazol-4-yl)-5-(1-(3-propyl-1-((trifluoromethyl)sulfonyl)azetidin-3-yl)-1H-pyrazol-4-yl)imidazo[1,2-c]pyrimidine], the 50% inhibitory concentration (IC50) at Human Tyk2 kinase domain was 10 to 100 nM; at JAK1, 100 to 1000 nM; against JAK2, 10 to 100 nM; against JAK3 it was 100 to 1000 nM.

Consider `COCCn1cc(-c2cc3nccn3c(-c3cnn(C4(CCF)CN(S(=O)(=O)C(F)(F)F)C4)c3)n2)cn1` [Example 89, 5-(1-(3-(2-fluoroethyl)-1-((trifluoromethyl)sulfonyl)azetidin-3-yl)-1H-pyrazol-4-yl)-7-(1-(2-methoxyethyl)-1H-pyrazol-4-yl)imidazo[1,2-c]pyrimidine], for which the IC50 against Human Tyk2 kinase domain is less than 10 nM; against JAK1, 10 to 100 nM; against JAK2, 10 to 100 nM; against JAK3, 100 to 1000 nM.

As to `CC=CCC1(n2cc(-c3nc(-c4cnn(C)c4)cc4nccn34)cn2)CN(S(=O)(=O)C(F)(F)F)C1` [Example 90, 5-(1-(3-(but-2-en-1-yl)-1-((trifluoromethyl)sulfonyl)azetidin-3-yl)-1H-pyrazol-4-yl)-7-(1-methyl-1H-pyrazol-4-yl)imidazo[1,2-c]pyrimidine], the IC50 at Human Tyk2 kinase domain, against JAK1, against JAK2 and at JAK3 was 10 to 100 nM in each case.

For `C=CCC1(n2cc(-c3nc(-c4cnn(C)c4)cc4nccn34)cn2)CN(S(=O)(=O)C(F)(F)F)C1` [Example 91, 5-(1-(3-allyl-1-((trifluoromethyl)sulfonyl)azetidin-3-yl)-1H-pyrazol-4-yl)-7-(1-methyl-1H-pyrazol-4-yl)imidazo[1,2-c]pyrimidine], the IC50 against Human Tyk2 kinase domain was less than 10 nM; at JAK1, 10 to 100 nM; on JAK2, 10 to 100 nM; against JAK3, 100 to 1000 nM.

For the compound `Cn1cc(-c2cc3nccn3c(-c3cnn(C4(CC(C)(C)O)CN(S(=O)(=O)C(F)(F)F)C4)c3)n2)cn1` [Example 94, 2-methyl-1-(3-(4-(7-(1-methyl-1H-pyrazol-4-yl)imidazo[1,2-c]pyrimidin-5-yl)-1H-pyrazol-1-yl)-1-((trifluoromethyl)sulfonyl)azetidin-3-yl)propan-2-ol], the half-inhibitory concentration (IC50) is 100 to 1000 nM at Human Tyk2 kinase domain, 100 to 1000 nM on JAK1, 100 to 1000 nM on JAK2 and more than 1000 nM against JAK3.

For the compound `CC(C)S(=O)(=O)N1CC(CCF)(n2cc(-c3nc(-c4cnn(C)c4)cc4nccn34)cn2)C1` [Example 95, 5-(1-(3-(2-fluoroethyl)-1-(isopropylsulfonyl)azetidin-3-yl)-1H-pyrazol-4-yl)-7-(1-methyl-1H-pyrazol-4-yl)imidazo[1,2-c]pyrimidine], the IC50 is 100 to 1000 nM against Human Tyk2 kinase domain, more than 1000 nM against JAK1, 100 to 1000 nM on JAK2 and more than 1000 nM against JAK3.

`CC(=O)N1CC(CCF)(n2cc(-c3nc(-c4cnn(C)c4)cc4nccn34)cn2)C1` [Example 96, 1-(3-(2-fluoroethyl)-3-(4-(7-(1-methyl-1H-pyrazol-4-yl)imidazo[1,2-c]pyrimidin-5-yl)-1H-pyrazol-1-yl)azetidin-1-yl)ethanone]: the IC50 on Human Tyk2 kinase domain, against JAK1, against JAK2 and at JAK3 was more than 1000 nM in each case.
